Data as given in US20100184867A1, “USE OF ACTIVE AGENTS FOR STIMULATING THE EXPRESSION OF FN3K AND/OR FN3K RP FOR COMBATING AGEING OF THE SKIN” (CHANEL PARFUMS BEAUTE, priority 2007, published 2010).

Test system: glycation of the extra-cellular matrix (ECM)
Test: Glycation of the extra-cellular matrix (ECM) of fibroblasts: EFA content by dot blot and densitometric analysis
Format: cell-based, human
Details: 1 mg/ml
Protocol: Human normal fibroblasts were cultured at 37° C. in the presence of DMEM (Invitrogen) containing 10% of fetal bovine serum (Invitrogen) and 50 UI/ml of penicillin, 50 μg/ml of […] (Invitrogen) and 2 mM of glutamin. Collagen synthesis was stimulated by culturing cells in the presence of vitamin C at 20 μg/ml (Sigma) for 5 days. The cells were then washed with PBS and lysed by successive cycles of freezing and thawing.
Except for the controls, cell layers had previously been treated with Butea frondosa (at 0.02; 0.1 and 0.5%), which was prepared according to Example 1 or with a reference compound: aminoguanidin at 1 mg/ml (Sigma). The cells were then incubated in the presence of 0.1 mg/ml glucose. Each of the treatments was performed, in triplicate, for 15 days at 37° C. with 5% CO2.
At the end of the incubation period, ECM proteins (essentially collagen) were extracted, and the samples were then transferred onto a nitrocellulose membrane (Hybrond, ECL, Amersham) by means of a Milliblot dotblot (Millipore). All the controls were carried out in order to assess the specificity of the final response. No interference was observed. […]
The following table illustrates the effect of this treatment on glucose incorporation into macromolecules synthetised by fibroblasts. The presence of EFA was measured by dot blot analysis and densitometric analysis.

## N=C(N)NN [Aminoguanidin, aminoguanidin]
  Inhibition of EFA content compared to the control: 35%
15 days, 0.1 mg/ml glucose, control 100%
  EFA content relative to control: 65%
